We go through two sequences from patent publication US20190359653A1, “SELECTIVE PEPTIDE INHIBITORS OF FRIZZLED” (Genentech, Inc., priority 2016, published 2019).

In test [1] the test system is mouse intestinal organoids. In words: organoid budding / stem cell potential. The format is cell-based. The conditions noted are these: 48 h; dFz7-21 1-200 μM, Fz7-21S 200 μM; FIG. 18. As to the method: Mouse organoids were established from isolated crypts collected from the entire length of the small intestine and maintained as previously described (Sato et al. (2009) Nature 459, 262-265 (2009). All mouse derived tissue was performed according to the animal use guidelines of Genentech, a Member of the Roche Group, and the Institutional Animal Care and Use Committee, conforming to California State legal and ethical practices. Mouse sex was not selected for. Organoids were passaged at least twice per week and grown using IntestiCult Organoid growth media (cat. no. 06005; StemCell Technologies). […]
The organoid culture system faithfully recapitulates the intestinal epithelium including the presence of crypt-villus morphology. […] Therefore, stem cell function of the organoid population (a Wnt-dependent process) was quantitatively assessed by scoring the number of formed buds per organoid (Grabinger et al. (2014) “Ex vivo culture of intestinal crypt organoids as a model system for assessing cell death induction in intestinal epithelial cells and enteropathy.” Cell Death & Disease 5, e1228). […] Morphologies of representative mouse intestinal organoids after 48 h treatment are shown in FIGS. 17A-G. Next, organoid stem cell (SC) potential after peptide treatment was quantified. […]

Test [2] relates to mouse intestinal organoids. In words: RT-PCR of stem cell and Wnt transcripts in organoids. The format is cell-based. The conditions noted are these: for ISC markers Lgr5 and Ascl2: FIGS. 19A, 19B. The method, then: Mouse organoids were established from isolated crypts collected from the entire length of the small intestine and maintained as previously described (Sato et al. (2009) Nature 459, 262-265 (2009). All mouse derived tissue was performed according to the animal use guidelines of Genentech, a Member of the Roche Group, and the Institutional Animal Care and Use Committee, conforming to California State legal and ethical practices. Mouse sex was not selected for. Organoids were passaged at least twice per week and grown using IntestiCult Organoid growth media (cat. no. 06005; StemCell Technologies). Peptides were suspended in DMSO and dissolved in media to 1% DMSO final concentration, then added to organoids to initiate drug treatment. Antibodies were added to 10 μg/ml concentration. Organoids were imaged using a Nikon Eclipse Ti scope with a Nikon Plan Fluor 10×Ph1 DLL objective using an Andor Neo camera (1×1 binning; 200 ms exposure) and acquired using NIS Elements (v 4.50 64-bit; Nikon). APC^min organoids were generated as previously described (Melo, F.d.S.e. et al. A distinct role for Lgr5+ stem cells in primary and metastatic colon cancer. Nature 543, 676-680 (2017)). For organoids treated with CHIR99021 (5 μM; Stemcell Technologies) organoids were split and treated with DMSO or CHIR99021 (5 μM) for 24 hr. prior to the addition of peptide or DMSO for 24 hr.
RNA from organoid samples was isolated using the RNeasy Micro kit (cat. no. 74004; Qiagen) according to the manufacturer's instructions. Mouse small intestine RNA was collected using the RNeasy Mini Kit (cat. no. 74104; Qiagen). qRT-PCR was performed in 10 μL reactions with 50 ng total RNA using One-step Real-time RT-PCR mastermix (cat. no. 4392938; Life Technologies) according to the manufacturer's instructions. Taqman probes from Life Technologies were used: Actb (Mm01205647_g1); Lgr5 (Mm01251801_m1); Axin2 (Mm00443610_m1); Ascl2 (Mm01268891_g1); Olfm4 (Mm01320260_m1); Muc2 (Mm01276696_m1); ACTB(Hs99999903_m1); ACTB(Mm00607939_s1); GAPDH (Mm99999915_g1); and GAPDH(Hs03929097_g1). RT-PCR reactions were run using a 7900HT Fast Real-Time PCR system (ABI) at the following thermal cycling conditions: Holding step of 30 min at 48° C., followed by a holding step of 10 min at 95° C., and 40 cycles of 10 sec at 95° C. and 1 min at 60° C. Values were normalized to actin transcript levels and then normalized to control as described in the figure legend.
Treatment with Fz7-21S had no effect. […] The effects of dFz7-21 on both ISC potential and stem cell transcripts were similar to a control anti-Lrp6 antibody (i.e., a general inhibitor of Wnt signaling).

In the case of “LPSDDLEFWSHVMY [Fz7-21S, negative control]”, in test [1], the “budding events / organoid stem cell potential” value was “did not show any major effects”. The “ISC markers Lgr5 and Ascl2” value in test [2] (24 and 48 h treatment) is given as “had no effect”.
In the case of LPSDDLEFWCHVMY [dFz7-21], in test [1], the “budding events / organoid stem cell potential” value is “dramatically reduced”. In test [2] (24 and 48 h treatment), the “Muc2” value is recorded as “upregulated”; the “ISC markers Lgr5 and Ascl2” value is on record as “significantly down regulated”. Further, the “Axin2” value in test [2] (FIG. 19C) is given as “significantly reduced”.
